Assays:
PD-1/PD-L1 = conditions: stated in introduction, source not given; read-out: PD-L1 inhibitory activity IC50; cited from earlier work
[1] = Body weight in B16F10 model
Experimental: (§1) The antitumor activity of IMMH-010 was evaluated by B16F10 melanoma and MC38 colon carcinoma xenograft models. The B16F10 and MC38 cells were resuspended in saline (1.5 × 10^6 cells/0.2 mL saline) and injected subcutaneously into the right flanks of each mouse on day 0. The treated mice received once-daily oral administration of IMMH-010 maleate (1.25, 2.5, 5, and 10 mg/kg, n = 10) by oral gavage (PO) for 19 consecutive days, whereas the control mice received vehicle (0.5% carboxymethyl cellulose, n = 10). The mice in the positive control group received the anti-mouse PD-L1 antibody (696618M2, Bio X Cell, West Lebanon, NH, USA) at 10 mg/kg intraperitoneally every 3 days (n = 10). The first-line antineoplastic drug cyclophosphamide (CTX) was administered at doses of 80 and 40 mg/kg weekly in the B16F10 and MC38 models (n = 10), respectively. After the last treatment, on day 19, the mice were sacrificed, and the tumor and spleen were stripped and weighed. The tumor growth inhibition (TGI) was calculated as TGI = (1 − treatment group tumor weight/vehicle group tumor weight) × 100.

[2] = Metabolism in human liver S9 fractions; assay type: in vitro ADME
Experimental: (§2) IMMH-010 metabolism was compared in human, monkey, dog, and rat liver S9 homogenates. IMMH-010 (10 μM) was incubated with liver S9 homogenate protein (0.5 mg protein/mL) and a reduced nicotinamide adenine dinucleotide phosphate (NADPH) regenerating system in a final volume of 0.2 mL Tris-HCl buffer (50 mM, pH 7.4) containing 5 mM MgCl2. The reactions were performed in triplicate. After 2 min of preincubation at 37 °C, reactions were initiated by the addition of IMMH-010 (10 μM). The samples were collected 0, 5, 10, and 20 min after incubation, 2 volumes of acetonitrile were added to terminate the reaction. After vortexing and centrifugation, IMMH-010, YPD-29B, M3, and M4 in the supernatant were analyzed by LC-MS/MS.
(§3) All statistics were calculated using GraphPad Prism 8.0 software (San Diego, CA, USA) designed for one-way ANOVA. Pharmacokinetic parameters were calculated with a non-compartmental analysis using WinNonlin Version 6.3 (Pharsight, Mountain View, CA, USA). ADMET predictor V10.0 (Simulations Plus, Inc., Lancaster, CA, USA) and Microsoft Excel (Microsoft, Redmond, WA, USA) were used to process the data (i.e., half-life (t1/2) and hepatic clearance (CLhep) determination). Data were expressed as means ± standard deviations (SD). Results were considered statistically significant if the p-value <0.05, <0.01 and <0.001.

recombinant human AADAC = biological target: T1, recombinant human AADAC (Homo sapiens, UniProt P22760); assay: IMMH-010 hydrolysis by recombinant human AADAC; assay type: in vitro ADME; conditions: 10 μM, AADAC 0.1 mg/mL, 15 min, 37 °C
T1 construct: purchased CUSABIO Biotech Co., Ltd. (Wuhan, China)
T1 sequence (P22760 1-399): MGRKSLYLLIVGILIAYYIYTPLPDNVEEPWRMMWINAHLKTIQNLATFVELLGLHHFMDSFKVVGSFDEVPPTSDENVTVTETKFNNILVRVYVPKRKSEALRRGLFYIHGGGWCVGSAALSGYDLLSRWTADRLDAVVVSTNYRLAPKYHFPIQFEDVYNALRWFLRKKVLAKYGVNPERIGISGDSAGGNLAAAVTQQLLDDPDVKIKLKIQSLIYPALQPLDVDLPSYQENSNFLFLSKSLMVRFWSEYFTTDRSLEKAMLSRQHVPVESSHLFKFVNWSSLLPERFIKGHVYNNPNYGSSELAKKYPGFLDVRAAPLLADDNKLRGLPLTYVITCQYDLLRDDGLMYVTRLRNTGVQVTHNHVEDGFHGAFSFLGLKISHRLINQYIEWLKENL
Experimental: To verify the role of CES1, CES2, and AADAC in human metabolism of […]-010 (10 μM) was incubated individually with recombinant human CES1, CES2, and AADAC (0.1 mg protein/mL) at 37 °C for 15 min. Lidocaine (500 μM), CPT-11 (2 μM), and phenacetin (1 mM), which are substrates of CES1, CES2, and AADAC, were used as positive controls.

[3] = Body weight in MC38 model
Experimental: as §1

[4] = Metabolism in dog liver S9 fractions; assay type: in vitro ADME
Experimental: as §2, §3

estimated CLhep ([2]; from human liver S9): 18.2 mL/min/kg
half-life at 10 μM ([2]; pH 7.4, human liver S9 0.5 mg protein/mL, 10 μM, NADPH): 6.66 min
CLhep as share of hepatic blood flow ([2]; range over human, monkey, dog and rat liver S9): 83.4–91.0%
remaining amount of IMMH-010 (recombinant human AADAC): 98.7%
estimated CLhep ([4]; from dog liver S9): 36.4 mL/min/kg
half-life at 10 μM ([4]; pH 7.4, dog liver S9 0.5 mg protein/mL, 10 μM, NADPH): 4.9 min
SMILES: CC(C)OC(=O)[C@H](CO)NCc1cc(Cl)c(OCc2cccc(-c3ccccc3)c2Br)cc1OCc1cccnc1 [IMMH-010]
IC50 (PD-1/PD-L1): 10 to 100 nM
Body Weight (g) X ± SD Finish ([1]; B16F10, IMMH-010 maleate 1.25 mg/kg PO once daily 19 days): 20.2 ± 1.4 g
Body Weight (g) X ± SD Start ([1]; B16F10, IMMH-010 maleate 1.25 mg/kg PO once daily): 17.09 ± 0.63 g
Body Weight (g) X ± SD Finish ([1]; B16F10, IMMH-010 maleate 2.5 mg/kg PO once daily 19 days): 20.3 ± 1.2 g
Body Weight (g) X ± SD Start ([1]; B16F10, IMMH-010 maleate 2.5 mg/kg PO once daily): 16.86 ± 0.57 g
Body Weight (g) X ± SD Finish ([1]; B16F10, IMMH-010 maleate 5 mg/kg PO once daily 19 days): 20.0 ± 1.2 g
Body Weight (g) X ± SD Start ([1]; B16F10, IMMH-010 maleate 5 mg/kg PO once daily): 17.09 ± 0.81 g
Body Weight (g) X ± SD Finish ([1]; B16F10, IMMH-010 maleate 10 mg/kg PO once daily 19 days): 20.1 ± 1.0 g
Body Weight (g) X ± SD Start ([1]; B16F10, IMMH-010 maleate 10 mg/kg PO once daily): 17.15 ± 0.50 g
effect on body weight ([1]; B16F10 model, IMMH-010 maleate PO once a day for 19 days): without weight loss
Body Weight (g) X ± SD Finish ([3]; MC38, IMMH-010 maleate 1.25 mg/kg PO once daily 19 days): 24.3 ± 2.1 g
Body Weight (g) X ± SD Start ([3]; MC38, IMMH-010 maleate 1.25 mg/kg PO once daily): 22.2 ± 0.4 g
Body Weight (g) X ± SD Finish ([3]; MC38, IMMH-010 maleate 2.5 mg/kg PO once daily 19 days): 25.3 ± 2.3 g
Body Weight (g) X ± SD Start ([3]; MC38, IMMH-010 maleate 2.5 mg/kg PO once daily): 22.0 ± 0.6 g
Body Weight (g) X ± SD Finish ([3]; MC38, IMMH-010 maleate 5 mg/kg PO once daily 19 days): 23.7 ± 1.8 g
Body Weight (g) X ± SD Start ([3]; MC38, IMMH-010 maleate 5 mg/kg PO once daily): 21.9 ± 0.8 g
Body Weight (g) X ± SD Finish ([3]; MC38, IMMH-010 maleate 10 mg/kg PO once daily 19 days): 25.0 ± 1.7 g
Body Weight (g) X ± SD Start ([3]; MC38, IMMH-010 maleate 10 mg/kg PO once daily): 21.9 ± 0.7 g
effect on body weight ([3]; MC38 model, IMMH-010 maleate PO once a day for 19 days): without weight loss

Source: PMC8143347, “Metabolism and Interspecies Variation of IMMH-010, a Programmed Cell Death Ligand 1 Inhibitor Prodrug” (Pharmaceutics, 2021)
